Assay results from patent US11993598B2, “Compounds for inhibiting EGFR kinase, preparation methods and uses thereof” (WIGEN BIOMEDICINE TECHNOLOGY (SHANGHAI) CO., LTD., priority 2019, dated 2024).
One block for each compound: values may come before it.

Assays:
[1] = system: A431 (wild type EGFR, skin cancer); test: Cell proliferation assay (MTT); format: cell-based; conditions: Homo sapiens, A-431, 72 h, three days
Method: (§1) A431 cells, H1975 and Ba/F3 cells expressing various mutant EGFR were harvested from exponential phase cultures and seeded in 96-well plates at a cell density of 3000 per well for A431 and H1975, and 10000 per well for Ba/F3 cells. After overnight attachment, compounds were 3-fold serially diluted and applied to cells at 30 μM, 10 μM, 3 μM, 1 μM, 0.3 μM, […], 0.03 μM and 0.01 μM with triplicates, and incubated for three days. 20 μL of 5 mg/mL MTT was added afterwards followed by the further addition of 50 μL 10% SDS together with 5% isobutyl alcohol in 0.01 mol/L HCl. The plates were incubated overnight. Absorbance (A) at a wavelength of 570 nm was quantified. Percentage of inhibition was used for the calculation of IC50 based on the bliss method.

EGFR A763_Y764insFHEA = EGFR A763_Y764insFHEA (Homo sapiens, UniProt P00533, INS763FHEA); test: Mutant EGFR biochemical activity assay (HTRF); conditions: read-out: IC50 (nM) EGFR A763_Y764 insFHEA
Method: (§2) Assay 1: Wild-type EGFR, HER2 and HER4, and mutant EGFR biochemical activity assay
(§3) 10 nL of Serially diluted compounds were transferred to assay plates using the labcyte Echo 550, and 5 uL of 2× enzymes in assay buffer were subsequently dispensed. The assay plate was covered with an adhesive plate seal, and briefly spinned for 30 s at 1000 g. 5 uL of 2× TK-substrate-biotin and ATP mixed in assay buffer were added.
(§4) IC50 was calculated and analyzed using a 4 parametric logistic model.

EGFR D770-N771insNPG = EGFR D770-N771insNPG (Homo sapiens, UniProt P00533, INS770NPG); test: Mutant EGFR biochemical activity assay (HTRF)
EGFR D770-N771insNPG, sequence (P00533 with tags, fused parts or gaps INS770NPG limits assumed): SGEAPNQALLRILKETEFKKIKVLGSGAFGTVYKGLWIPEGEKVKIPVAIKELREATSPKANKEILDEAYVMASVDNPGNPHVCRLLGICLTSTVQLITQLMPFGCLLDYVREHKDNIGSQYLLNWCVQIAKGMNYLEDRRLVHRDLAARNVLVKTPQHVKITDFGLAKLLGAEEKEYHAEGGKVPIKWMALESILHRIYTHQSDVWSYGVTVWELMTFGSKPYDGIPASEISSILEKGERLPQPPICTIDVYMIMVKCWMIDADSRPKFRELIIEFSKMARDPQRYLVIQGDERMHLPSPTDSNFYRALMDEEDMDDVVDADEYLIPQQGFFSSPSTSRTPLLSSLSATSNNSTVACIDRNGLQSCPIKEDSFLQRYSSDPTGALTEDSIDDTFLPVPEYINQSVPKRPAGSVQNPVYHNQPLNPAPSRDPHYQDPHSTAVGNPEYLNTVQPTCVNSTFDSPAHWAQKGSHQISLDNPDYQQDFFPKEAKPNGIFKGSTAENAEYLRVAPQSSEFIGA
Method: as §2, §3, §4

EGFR L792F = EGFR L792F (Homo sapiens, UniProt P00533, L792F); test: Mutant EGFR biochemical activity assay (HTRF)
Method: as §2, §3, §4

EGFR L792H = EGFR L792H (Homo sapiens, UniProt P00533, L792H); test: Mutant EGFR biochemical activity assay (HTRF)
Method: as §2, §3, §4

EGFR D770GY = EGFR D770GY (Homo sapiens, UniProt P00533, D770Y/INS769G); test: Mutant EGFR biochemical activity assay (HTRF)
EGFR D770GY, sequence (P00533 with tags, fused parts or gaps INS769G/D770Y limits assumed): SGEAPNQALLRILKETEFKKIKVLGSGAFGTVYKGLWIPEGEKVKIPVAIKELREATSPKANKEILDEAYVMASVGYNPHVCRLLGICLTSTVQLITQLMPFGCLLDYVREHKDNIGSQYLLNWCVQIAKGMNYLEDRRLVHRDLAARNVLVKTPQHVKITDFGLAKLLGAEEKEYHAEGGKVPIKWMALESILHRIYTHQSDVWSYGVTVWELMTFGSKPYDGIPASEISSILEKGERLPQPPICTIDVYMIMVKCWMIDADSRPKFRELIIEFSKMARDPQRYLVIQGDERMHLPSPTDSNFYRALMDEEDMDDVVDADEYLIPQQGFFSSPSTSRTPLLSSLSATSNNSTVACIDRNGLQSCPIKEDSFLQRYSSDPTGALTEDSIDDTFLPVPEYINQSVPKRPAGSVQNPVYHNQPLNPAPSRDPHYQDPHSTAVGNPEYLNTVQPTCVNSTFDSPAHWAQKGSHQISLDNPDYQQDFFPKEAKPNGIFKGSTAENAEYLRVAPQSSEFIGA
Method: as §2, §3, §4

EGFR T790M = EGFR T790M (Homo sapiens, UniProt P00533, T790M); test: Mutant EGFR biochemical activity assay (HTRF)
Method: as §2, §3, §4

EGFR T790M/L858R = EGFR T790M/L858R (Homo sapiens, UniProt P00533, L858R/T790M); test: Mutant EGFR biochemical activity assay (HTRF)
EGFR T790M/L858R, sequence (P00533 25-1210 T790M/L858R): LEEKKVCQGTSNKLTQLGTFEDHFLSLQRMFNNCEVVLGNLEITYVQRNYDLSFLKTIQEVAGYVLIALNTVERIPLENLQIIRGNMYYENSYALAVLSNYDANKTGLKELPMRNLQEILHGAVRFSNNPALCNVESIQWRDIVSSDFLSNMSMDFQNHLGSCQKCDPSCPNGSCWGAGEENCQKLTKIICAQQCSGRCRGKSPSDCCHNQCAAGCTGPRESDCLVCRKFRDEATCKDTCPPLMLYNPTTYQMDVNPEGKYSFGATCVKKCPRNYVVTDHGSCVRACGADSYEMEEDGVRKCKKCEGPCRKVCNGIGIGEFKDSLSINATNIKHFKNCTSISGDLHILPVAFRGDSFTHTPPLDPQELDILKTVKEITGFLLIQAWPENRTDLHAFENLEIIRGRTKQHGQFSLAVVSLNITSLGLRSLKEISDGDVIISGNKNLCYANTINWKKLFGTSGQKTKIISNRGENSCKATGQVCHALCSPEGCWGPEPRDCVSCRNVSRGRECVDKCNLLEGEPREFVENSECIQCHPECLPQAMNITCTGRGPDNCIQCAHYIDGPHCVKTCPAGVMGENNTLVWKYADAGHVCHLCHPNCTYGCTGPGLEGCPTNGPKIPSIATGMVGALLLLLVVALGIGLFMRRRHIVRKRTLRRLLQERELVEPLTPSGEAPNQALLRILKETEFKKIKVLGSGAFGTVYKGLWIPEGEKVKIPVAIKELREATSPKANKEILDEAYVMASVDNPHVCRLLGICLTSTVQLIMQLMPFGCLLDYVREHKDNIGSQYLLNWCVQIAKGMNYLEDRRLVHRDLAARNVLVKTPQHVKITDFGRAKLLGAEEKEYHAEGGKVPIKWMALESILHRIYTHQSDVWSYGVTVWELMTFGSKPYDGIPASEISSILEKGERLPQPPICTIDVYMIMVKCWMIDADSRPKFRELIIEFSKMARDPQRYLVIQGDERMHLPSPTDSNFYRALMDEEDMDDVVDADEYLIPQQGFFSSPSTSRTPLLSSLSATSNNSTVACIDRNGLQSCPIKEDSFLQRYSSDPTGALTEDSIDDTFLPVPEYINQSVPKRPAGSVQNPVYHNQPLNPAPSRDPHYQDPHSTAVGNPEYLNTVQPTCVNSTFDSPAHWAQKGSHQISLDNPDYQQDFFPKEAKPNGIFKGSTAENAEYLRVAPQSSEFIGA
Method: as §2, §3, §4

EGFR Del19 = EGFR Del19 (Homo sapiens, UniProt P00533); test: Mutant EGFR biochemical activity assay (HTRF)
Method: as §2, §3, §4

[2] = target: EGFR D770_N771insNPG T790M (Homo sapiens, UniProt P00533, INS770NPG/T790M); test: Mutant EGFR biochemical activity assay (HTRF); conditions: read-out: IC50 (nM) EGFR D770_N771 insNPG T790M
Method: as §2, §3, §4

HER4 = HER4 (Homo sapiens, UniProt Q15303); test: HER4 biochemical activity assay (HTRF)
Method: as §2, §3, §4

HER2 = HER2 (Homo sapiens, UniProt P04626); test: HER2 biochemical activity assay (HTRF)
HER2, sequence (P04626 23-1255): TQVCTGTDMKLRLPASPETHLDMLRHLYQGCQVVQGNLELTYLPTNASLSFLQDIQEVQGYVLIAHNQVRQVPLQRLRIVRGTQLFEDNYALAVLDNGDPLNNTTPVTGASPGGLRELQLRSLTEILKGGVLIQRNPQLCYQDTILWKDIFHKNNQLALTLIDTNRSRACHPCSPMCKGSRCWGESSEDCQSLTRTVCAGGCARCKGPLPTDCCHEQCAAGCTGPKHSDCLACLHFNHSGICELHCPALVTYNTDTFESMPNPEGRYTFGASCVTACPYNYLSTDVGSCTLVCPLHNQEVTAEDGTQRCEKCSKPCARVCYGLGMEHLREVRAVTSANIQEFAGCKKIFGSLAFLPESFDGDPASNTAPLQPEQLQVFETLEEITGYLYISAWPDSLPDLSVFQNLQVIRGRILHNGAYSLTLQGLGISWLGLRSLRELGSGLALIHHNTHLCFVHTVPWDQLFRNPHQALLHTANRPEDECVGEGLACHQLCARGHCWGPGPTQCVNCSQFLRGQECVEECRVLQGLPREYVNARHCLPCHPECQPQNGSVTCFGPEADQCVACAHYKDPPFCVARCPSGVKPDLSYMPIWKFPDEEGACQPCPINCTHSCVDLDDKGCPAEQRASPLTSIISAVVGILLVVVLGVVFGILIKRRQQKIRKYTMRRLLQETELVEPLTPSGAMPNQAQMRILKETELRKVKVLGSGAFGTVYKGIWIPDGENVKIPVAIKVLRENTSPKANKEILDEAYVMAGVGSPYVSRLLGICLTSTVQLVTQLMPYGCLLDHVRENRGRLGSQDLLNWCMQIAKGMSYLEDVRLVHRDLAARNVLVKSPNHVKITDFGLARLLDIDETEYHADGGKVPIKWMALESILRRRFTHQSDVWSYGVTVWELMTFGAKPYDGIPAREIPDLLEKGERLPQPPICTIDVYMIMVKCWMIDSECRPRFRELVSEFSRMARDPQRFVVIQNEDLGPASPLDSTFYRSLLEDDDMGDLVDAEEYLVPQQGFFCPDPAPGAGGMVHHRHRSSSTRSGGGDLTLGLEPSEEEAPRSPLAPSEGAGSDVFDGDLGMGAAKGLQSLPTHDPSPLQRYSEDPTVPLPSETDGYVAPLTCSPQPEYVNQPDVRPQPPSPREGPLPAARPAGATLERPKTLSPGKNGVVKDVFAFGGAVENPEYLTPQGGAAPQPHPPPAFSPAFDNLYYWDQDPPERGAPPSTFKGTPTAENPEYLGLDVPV
Method: as §2, §3, §4

[3] = target: Ba/F3_EGFR D770_N771insSVD (Homo sapiens, UniProt P00533, DUP768-770, cells depend on it); test: Cell proliferation assay (MTT); format: cell-based; conditions: three days, read-out: Ba/F3_EGFR D770_N771insSVD IC50
Method: as §1

[4] = target: Ba/F3_EGFR V769_D770insASV (Homo sapiens, UniProt P00533, DUP767-769, cells depend on it); test: Cell proliferation assay (MTT); format: cell-based; conditions: three days, read-out: Ba/F3_EGFR V769_D770insASV IC50
Ba/F3_EGFR V769_D770insASV, sequence (P00533 with tags, fused parts or gaps DUP767-769): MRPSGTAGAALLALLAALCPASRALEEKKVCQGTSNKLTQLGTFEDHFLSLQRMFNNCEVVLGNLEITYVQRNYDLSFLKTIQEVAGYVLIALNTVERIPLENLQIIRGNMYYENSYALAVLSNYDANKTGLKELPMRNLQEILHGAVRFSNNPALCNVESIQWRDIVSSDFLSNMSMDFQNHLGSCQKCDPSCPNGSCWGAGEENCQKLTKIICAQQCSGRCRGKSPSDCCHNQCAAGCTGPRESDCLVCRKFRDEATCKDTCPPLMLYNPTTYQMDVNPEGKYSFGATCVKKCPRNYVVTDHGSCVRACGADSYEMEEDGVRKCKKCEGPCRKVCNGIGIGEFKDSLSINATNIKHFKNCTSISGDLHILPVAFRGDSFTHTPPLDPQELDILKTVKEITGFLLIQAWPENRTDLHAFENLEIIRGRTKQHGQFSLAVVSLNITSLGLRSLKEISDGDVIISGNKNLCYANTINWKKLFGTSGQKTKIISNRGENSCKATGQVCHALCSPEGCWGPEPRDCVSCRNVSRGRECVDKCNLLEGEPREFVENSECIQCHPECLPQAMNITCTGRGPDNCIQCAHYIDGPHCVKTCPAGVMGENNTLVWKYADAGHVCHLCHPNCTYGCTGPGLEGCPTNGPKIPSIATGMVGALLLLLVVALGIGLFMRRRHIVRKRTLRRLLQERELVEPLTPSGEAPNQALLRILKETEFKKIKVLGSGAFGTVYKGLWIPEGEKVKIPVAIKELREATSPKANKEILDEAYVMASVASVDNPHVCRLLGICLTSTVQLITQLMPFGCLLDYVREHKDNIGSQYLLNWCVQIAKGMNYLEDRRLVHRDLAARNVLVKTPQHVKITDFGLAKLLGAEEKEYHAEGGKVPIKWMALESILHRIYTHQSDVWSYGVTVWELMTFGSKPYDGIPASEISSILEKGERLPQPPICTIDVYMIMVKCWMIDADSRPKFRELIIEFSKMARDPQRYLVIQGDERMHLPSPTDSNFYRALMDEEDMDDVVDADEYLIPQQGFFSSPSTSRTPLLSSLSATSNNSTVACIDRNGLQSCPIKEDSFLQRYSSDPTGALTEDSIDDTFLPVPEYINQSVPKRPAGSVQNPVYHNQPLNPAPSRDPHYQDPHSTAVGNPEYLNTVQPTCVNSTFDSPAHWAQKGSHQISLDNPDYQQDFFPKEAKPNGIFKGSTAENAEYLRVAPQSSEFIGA
Method: as §1

[5] = system: H1975 (EGFR L858R/T790M, NSCLC); test: Cell proliferation assay (MTT); format: cell-based; conditions: Homo sapiens, NCI-H1975, 72 h, three days
Method: as §1

EGFR-WT = EGFR-WT (Homo sapiens, UniProt P00533); test: Wild-type EGFR biochemical activity assay (HTRF)
Method: as §2, §3, §4

LU-01-0493 = test: Patient derived xenograft (PDX) mouse model; format: in vivo, nude mice; conditions: LU-01-0493, 0.5 mg/kg poziotinib
Method: (§5) Assay 3. In vivo studies in cell line-derived (CDX) and patient derived xenografts (PDX) mouse models
(§6) Cells (H1975) or tissue pieces (LU0493 and LU0426) were implanted subcutaneously into the left armpit of nude mice. When the average tumor volume reached 100-150 mm^3, mice were randomized by tumor volume and treated with vehicle, compound 1 or poziotinib respectively. Tumor volume and body weight were measured twice per week. Mice were sacrificed on day 21 or day 28, and tumor volume and terminal body weight were recorded. The relative tumor volume, percent of treatment/control values and tumor growth inhibition were calculated and statistics was performed.
(§7) Terminal body weight changes were calculated as percentage of body changes from day 1 to day 21.

LU-01-0426 = test: Patient derived xenograft (PDX) mouse model; format: in vivo, nude mice; conditions: LU-01-0426, 0.5 mg/kg poziotinib
Method: as §5, §6, §7

LU-0387 = test: Xenograft mouse model LU-0387; format: in vivo, nude mice; conditions: LU-0387, 0.5 mg/kg poziotinib

Compound: C=CC(=O)Nc1cc(Nc2nccc(-n3c(=O)n4c5c(cc(F)cc53)CCC4)n2)c(OC)nc1N(C)CCN(C)C [Compound 3, N-(2-((2-(dimethylamino)ethyl)(methyl)amino)-5-((4-(8-fluoro-2-oxo-5,6-dihydro-4H-imidazo[4,5,1-ij]quinolin-1(2H)-yl)pyrimidin-2-yl)amino)-6-methoxypyridin-3-yl)acrylamide]
GI50 [3]: 3.18 nM | IC50 [1]: 389 nM | GI50 [4]: 13.9 nM | IC50 [5]: 16 nM

Compound: C=CC(=O)Nc1cc(Nc2nccc(-n3c(=O)n4c5c(cc(F)cc53)CCC4)n2)c(OCC(F)(F)F)nc1N(C)CCN(C)C [Compound 5, N-(2-((2-(dimethylamino)ethyl)(methyl)amino)-5-((4-(8-fluoro-2-oxo-5,6-dihydro-4H-imidazo[4,5,1-ij]quinolin-1(2H)-yl)pyrimidin-2-yl)amino)-6-(2,2,2-trifluoroethoxy)pyridin-3-yl)acrylamide]
GI50 [3]: 5.07 nM | IC50 [1]: 154 nM | GI50 [4]: 14.9 nM | IC50 [5]: 15.8 nM

Compound: C=CC(=O)Nc1cc(Nc2nccc(-n3c(=O)n4c5c(cc(F)cc53)CCC4)n2)c(OC)cc1N(C)CCN1CCC1 [Compound 25, N-(2-((2-(azetidin-1-yl)ethyl)(methyl)amino)-5-((4-(8-fluoro-2-oxo-5,6-dihydro-4H-imidazo[4,5,1-ij]quinolin-1(2H)-yl)pyrimidin-2-yl)amino)-4-methoxyphenyl)acrylamide]
GI50 [3]: 12.4 nM | IC50 [1]: 386 nM | GI50 [4]: 23.4 nM | IC50 [5]: 25.4 nM

Compound: [2H]C([2H])([2H])N(CCN(C)c1cc(OC)c(Nc2nccc(-n3c(=O)n4c5c(cc(F)cc53)CCC4)n2)cc1NC(=O)C=C)C([2H])([2H])[2H] [Compound 29, N-(2-((2-(bis(methyl-d3)amino)ethyl)(methyl)amino)-5-((4-(8-fluoro-2-oxo-5,6-dihydro-4H-imidazo[4,5,1-ij]quinolin-1(2H)-yl)pyrimidin-2-yl)amino)-4-methoxyphenyl)acrylamide]
GI50 [3]: 9.03 nM | IC50 [1]: 188 nM | GI50 [4]: 23.4 nM | IC50 [5]: 21 nM

Compound: [2H]C([2H])([2H])Oc1cc(N(C)CCN(C)C([2H])([2H])[2H])c(NC(=O)C=C)cc1Nc1nccc(-n2c(=O)n3c4c(cc(F)cc42)CCC3)n1 [Compound 43, N-(5-((4-(8-fluoro-2-oxo-5,6-dihydro-4H-imidazo[4,5,1-ij]quinolin-1(2H)-yl)pyrimidin-2-yl)amino)-4-(methoxy-d3)-2-(methyl(2-(methyl(methyl-d3)amino)ethyl)amino)phenyl) acrylamide]
GI50 [3]: 6.65 nM | IC50 [1]: 254 nM | GI50 [4]: 16.6 nM | IC50 [5]: 19.8 nM

Compound: C=CC(=O)N1CCC(Oc2cc3c(Nc4ccc(Cl)c(Cl)c4F)ncnc3cc2OC)CC1 [poziotinib, reference compound]
TGI (%) (LU-01-0493): 56.8% | Terminal body weight changes (%) (LU-01-0493; day 1 to day 21): −12.4% | TGI (%) (LU-01-0426): 91.3% | Terminal body weight changes (%) (LU-01-0426; day 1 to day 21): −7.4% | TGI (%) (LU-0387): 74.49% | Terminal body weight changes (%) (LU-0387; day 1 to day 21): 0%

Other lines, results leading:

IC50 (EGFR A763_Y764insFHEA): 0.299 nM | IC50 (EGFR D770-N771insNPG): 0.0815 nM | IC50 (EGFR L792F): 1.65 nM | IC50 (EGFR L792H): 46.9 nM | IC50 (EGFR D770GY): 0.276 nM | IC50 (EGFR T790M): 0.0509 nM | IC50 (EGFR T790M/L858R): 0.0724 nM | IC50 (EGFR Del19): 0.107 nM | IC50 [2]: 0.0567 nM | IC50 (HER4): 1.35 nM | IC50 (HER2): 47 nM | GI50 [3]: 9.15 nM | IC50 [1]: 71.1 nM | GI50 [4]: 23.8 nM | IC50 [5]: 23 nM | IC50 (EGFR-WT): 1.23 nM
Compound: C=CC(=O)Nc1cc(Nc2nccc(-n3c(=O)n4c5c(cccc53)CCC4)n2)c(OC)cc1N(C)CCN(C)C [Compound 2, N-(2-((2-(dimethylamino)ethyl)(methyl)amino)-4-methoxy-5-((4-(2-oxo-5,6-dihydro-4H-imidazo[4,5,1-ij]quinolin-1(2H)-yl)pyrimidin-2-yl)amino)phenyl)acrylamide]

IC50 (EGFR A763_Y764insFHEA): 0.143 nM | IC50 (EGFR D770-N771insNPG): 0.0554 nM | IC50 (EGFR L792F): 0.415 nM | IC50 (EGFR L792H): 15.6 nM | IC50 (EGFR D770GY): 0.13 nM | IC50 (EGFR T790M): 0.0573 nM | IC50 (EGFR T790M/L858R): 0.0841 nM | IC50 (EGFR Del19): 0.233 nM | IC50 [2]: 0.0514 nM | IC50 (HER4): 0.694 nM | IC50 (HER2): 34.6 nM | GI50 [3]: 5.08 nM | IC50 [1]: 154 nM | GI50 [4]: 15.7 nM | IC50 [5]: 12.4 nM | IC50 (EGFR-WT): 0.552 nM
Compound: C=CC(=O)Nc1cc(Nc2nccc(-n3c(=O)n4c5c(cccc53)CCC4)n2)c(OC)nc1N(C)CCN(C)C [Compound 4, N-(2-((2-(dimethylamino)ethyl)(methyl)amino)-6-methoxy-5-((4-(2-oxo-5,6-dihydro-4H-imidazo[4,5,1-ij]quinolin-1(2H)-yl)pyrimidin-2-yl)amino)pyridin-3-yl)acrylamide]

IC50 (EGFR A763_Y764insFHEA): 0.149 nM | IC50 (EGFR D770-N771insNPG): 0.0688 nM | IC50 (EGFR L792F): 4.09 nM | IC50 (EGFR L792H): > 100 nM | IC50 (EGFR D770GY): 0.0489 nM | IC50 (EGFR T790M): 0.0656 nM | IC50 (EGFR T790M/L858R): 0.0865 nM | IC50 (EGFR Del19): 0.14 nM | IC50 [2]: 0.0834 nM | IC50 (HER4): 0.725 nM | IC50 (HER2): 25.1 nM | GI50 [3]: 3.47 nM | IC50 [1]: 140 nM | GI50 [4]: 13.3 nM | IC50 [5]: 14.8 nM | IC50 (EGFR-WT): 0.451 nM
Compound: C=CC(=O)Nc1cc(Nc2nccc(-n3c(=O)n4c5c(cccc53)CCC4)n2)c(OCC(F)(F)F)nc1N(C)CCN(C)C [Compound 6, N-(2-((2-(dimethylamino)ethyl)(methyl)amino)-5-((4-(2-oxo-5,6-dihydro-4H-imidazo[4,5,1-ij]quinolin-1(2H)-yl)pyrimidin-2-yl)amino)-6-(2,2,2-trifluoroethoxy)pyridin-3-yl)acrylamide]

GI50 [3]: 5.13 nM | IC50 [1]: 256 nM | GI50 [4]: 14.3 nM | IC50 [5]: 32.2 nM
Compound: [2H]C([2H])([2H])N(C)CCN(C)c1cc(OC)c(Nc2nccc(-n3c(=O)n4c5c(cc(F)cc53)CCC4)n2)cc1NC(=O)C=C [Compound 28, N-(5-((4-(8-fluoro-2-oxo-5,6-dihydro-4H-imidazo[4,5,1-ij]quinolin-1(2H)-yl)pyrimidin-2-yl)amino)-4-methoxy-2-(methyl(2-(methyl(methyl-d3)amino)ethyl)amino)phenyl) acrylamide]

GI50 [3]: 5.61 nM | IC50 [1]: 301 nM | GI50 [4]: 13.9 nM | IC50 [5]: 14.6 nM
Compound: [2H]C([2H])([2H])Oc1cc(N(C)CCN(C)C)c(NC(=O)C=C)cc1Nc1nccc(-n2c(=O)n3c4c(cc(F)cc42)CCC3)n1 [Compound 42, N-(2-((2-(dimethylamino)ethyl)(methyl)amino)-5-((4-(8-fluoro-2-oxo-5,6-dihydro-4H-imidazo[4,5,1-ij]quinolin-1(2H)-yl)pyrimidin-2-yl)amino)-4-(methoxy-d3)phenyl)acrylamide]
